Consider seven compounds from ChEMBL document CHEMBL4184209, “Identification and initial optimization of inhibitors of Clostridium difficile (C. difficile) toxin B (TcdB)” (Bioorg Med Chem Lett, 2018).

Activity calls are given as the source filed them.

By IC50 is commonly meant the midpoint of a concentration-inhibition curve. For orientation: clearance means a measure of how efficiently the substance is removed, as volume per time. The low end stands for a low capacity for elimination, the high end for a high capacity for elimination. One may read the AUC(0-t) as exposure summed from dosing to a finite time, without extrapolation to infinity. In general, Cmax refers to the peak of the concentration-time curve. In general, Tmax refers to the time at which the peak concentration occurs.

For the first data set, the target named is T1, Toxin B (Clostridioides difficile, UniProt P18177). Put plainly: Inhibition of C-terminal 6-His tagged recombinant Clostridium difficile toxin B catalytic fragment (Met1 to Leu543 residues) assessed as reduction in glucosyltransferase domain UDP-glucose hydrolysis activity using UDP-glucose and ADP Alexa633 tracer incubated fore 3 hrs by fluorescence polarization assay.
T1 sequence (P18177 whole entry, the tested form may be a part): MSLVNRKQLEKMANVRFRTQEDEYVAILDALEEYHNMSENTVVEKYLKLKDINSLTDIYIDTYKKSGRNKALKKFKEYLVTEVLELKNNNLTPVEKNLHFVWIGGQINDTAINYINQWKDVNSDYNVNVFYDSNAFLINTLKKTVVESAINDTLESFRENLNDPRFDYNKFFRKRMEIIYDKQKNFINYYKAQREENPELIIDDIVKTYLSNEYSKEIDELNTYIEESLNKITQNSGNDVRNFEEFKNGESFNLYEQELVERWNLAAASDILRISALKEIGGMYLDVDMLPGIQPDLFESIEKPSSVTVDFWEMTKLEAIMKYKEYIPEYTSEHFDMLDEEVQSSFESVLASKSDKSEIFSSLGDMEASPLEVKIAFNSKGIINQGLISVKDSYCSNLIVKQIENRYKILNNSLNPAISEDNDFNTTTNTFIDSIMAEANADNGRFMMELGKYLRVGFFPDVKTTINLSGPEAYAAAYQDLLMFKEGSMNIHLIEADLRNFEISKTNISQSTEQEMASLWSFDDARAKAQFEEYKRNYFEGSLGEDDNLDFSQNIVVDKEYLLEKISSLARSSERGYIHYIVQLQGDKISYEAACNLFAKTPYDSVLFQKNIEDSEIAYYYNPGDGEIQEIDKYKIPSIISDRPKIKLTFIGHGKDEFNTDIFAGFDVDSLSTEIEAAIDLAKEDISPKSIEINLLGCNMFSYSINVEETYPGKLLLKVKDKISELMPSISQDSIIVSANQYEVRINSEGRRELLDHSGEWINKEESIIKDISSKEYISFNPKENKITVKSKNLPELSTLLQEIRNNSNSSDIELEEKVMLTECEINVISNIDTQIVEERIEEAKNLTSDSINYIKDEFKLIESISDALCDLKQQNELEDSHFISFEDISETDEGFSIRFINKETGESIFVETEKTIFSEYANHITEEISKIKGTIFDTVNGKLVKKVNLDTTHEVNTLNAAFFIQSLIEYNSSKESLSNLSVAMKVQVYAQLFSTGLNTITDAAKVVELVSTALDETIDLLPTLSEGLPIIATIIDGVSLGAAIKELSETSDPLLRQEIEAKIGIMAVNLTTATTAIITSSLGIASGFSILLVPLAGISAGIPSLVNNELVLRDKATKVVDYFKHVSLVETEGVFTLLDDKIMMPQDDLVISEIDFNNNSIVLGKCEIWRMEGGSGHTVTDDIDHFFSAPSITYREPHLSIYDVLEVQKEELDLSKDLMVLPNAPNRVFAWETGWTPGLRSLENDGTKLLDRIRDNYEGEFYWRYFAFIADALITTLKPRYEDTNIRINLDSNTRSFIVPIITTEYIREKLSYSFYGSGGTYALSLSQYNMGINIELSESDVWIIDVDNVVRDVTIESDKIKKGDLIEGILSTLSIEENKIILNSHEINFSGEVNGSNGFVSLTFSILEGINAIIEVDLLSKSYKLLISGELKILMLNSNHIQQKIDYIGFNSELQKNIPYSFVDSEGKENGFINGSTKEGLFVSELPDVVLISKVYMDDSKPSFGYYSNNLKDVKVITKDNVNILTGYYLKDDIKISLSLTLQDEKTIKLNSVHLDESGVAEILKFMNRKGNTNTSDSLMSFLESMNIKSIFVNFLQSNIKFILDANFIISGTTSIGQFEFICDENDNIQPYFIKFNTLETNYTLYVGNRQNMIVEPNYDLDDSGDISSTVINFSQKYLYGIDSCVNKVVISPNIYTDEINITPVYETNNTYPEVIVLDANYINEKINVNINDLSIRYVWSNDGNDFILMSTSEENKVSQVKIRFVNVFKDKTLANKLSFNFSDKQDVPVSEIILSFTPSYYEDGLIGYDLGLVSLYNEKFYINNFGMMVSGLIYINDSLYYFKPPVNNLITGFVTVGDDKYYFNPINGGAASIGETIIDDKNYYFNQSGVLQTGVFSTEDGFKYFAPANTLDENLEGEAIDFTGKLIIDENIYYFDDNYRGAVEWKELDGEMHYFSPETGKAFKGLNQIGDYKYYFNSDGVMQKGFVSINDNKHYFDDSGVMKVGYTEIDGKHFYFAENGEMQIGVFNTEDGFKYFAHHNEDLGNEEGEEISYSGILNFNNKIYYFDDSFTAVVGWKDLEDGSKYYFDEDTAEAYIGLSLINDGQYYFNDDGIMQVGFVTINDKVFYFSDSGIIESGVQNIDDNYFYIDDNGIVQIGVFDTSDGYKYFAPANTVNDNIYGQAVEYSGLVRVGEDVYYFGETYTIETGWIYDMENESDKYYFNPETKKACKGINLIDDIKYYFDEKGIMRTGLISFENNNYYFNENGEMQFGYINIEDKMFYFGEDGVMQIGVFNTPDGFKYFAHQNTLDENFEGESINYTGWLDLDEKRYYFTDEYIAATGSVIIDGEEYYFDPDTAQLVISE
Conditions: not given
In general terms: Fluorescence polarisation rises when a labelled molecule tumbles more slowly, as on binding a larger partner.
For the compound `O=C(O)c1ccc(CN2C(=O)c3ccc(Cl)cc3NC(=O)[C@H]2Cc2cccnc2)cc1`, the IC50 stood at 0.77 µM.

For the compound `O=C(O)c1ccc(CN2C(=O)c3ccc(Cl)cc3NC(=O)[C@H]2Cc2ccccc2)cc1`, the 50% inhibitory concentration (IC50) was found to be 6.3 µM.

`CN1C(=O)[C@@H](Cc2cccnc2)N(Cc2ccc(C(=O)O)cc2)C(=O)c2ccc(Cl)cc21`: the IC50 is over 80 µM.

For the compound `Cc1cccc(C[C@@H]2C(=O)Nc3cc(Cl)ccc3C(=O)N2Cc2ccc(C(=O)O)cc2)c1`, the IC50 came out at 4.4 µM.

With `O=C(Nc1nccs1)c1ccc(CN2C(=O)c3ccc(Cl)cc3NC(=O)[C@H]2Cc2cccnc2)cc1`, the half-maximal inhibitory concentration (IC50) turned out to be 0.042 µM.

Regarding `Cc1ccc(NC(=O)c2ccc(CN3C(=O)c4ccc(Cl)cc4NC(=O)[C@H]3Cc3ccccn3)cc2)nc1`, the IC50 is 0.001 µM.

As for `O=C(O)c1ccc(CN2C(=O)c3ccc(Cl)cc3NC(=O)[C@H]2Cc2ccc(Cl)cc2)cc1`, the IC50 came out at 17 µM.

The next data set concerns the target T1, Toxin B. Kind of data set: Inhibition of Clostridium difficile toxin B […] assessed as reduction in caspase 3/7 activation pre-incubated for 1 hr before TcdB addition by luminescence based assay1. It is filed as cell-based.
Conditions: not given
On to `O=C(Nc1nccs1)c1ccc(CN2C(=O)c3ccc(Cl)cc3NC(=O)[C@H]2Cc2cccnc2)cc1`, for which the 50% inhibitory concentration (IC50) is 20 µM.

Take `Cc1ccc(NC(=O)c2ccc(CN3C(=O)c4ccc(Cl)cc4NC(=O)[C@H]3Cc3ccccn3)cc2)nc1`: the IC50 stood at 0.17 µM.

The target in the next data set is Toxin A (Clostridioides difficile, UniProt P16154). Put plainly: Inhibition of Clostridium difficile toxin A […] assessed as reduction in caspase 3/7 activation pre-incubated for 1 hr before TcdA addition by luminescence based assay1.
Sequence of Toxin A (P16154 whole entry): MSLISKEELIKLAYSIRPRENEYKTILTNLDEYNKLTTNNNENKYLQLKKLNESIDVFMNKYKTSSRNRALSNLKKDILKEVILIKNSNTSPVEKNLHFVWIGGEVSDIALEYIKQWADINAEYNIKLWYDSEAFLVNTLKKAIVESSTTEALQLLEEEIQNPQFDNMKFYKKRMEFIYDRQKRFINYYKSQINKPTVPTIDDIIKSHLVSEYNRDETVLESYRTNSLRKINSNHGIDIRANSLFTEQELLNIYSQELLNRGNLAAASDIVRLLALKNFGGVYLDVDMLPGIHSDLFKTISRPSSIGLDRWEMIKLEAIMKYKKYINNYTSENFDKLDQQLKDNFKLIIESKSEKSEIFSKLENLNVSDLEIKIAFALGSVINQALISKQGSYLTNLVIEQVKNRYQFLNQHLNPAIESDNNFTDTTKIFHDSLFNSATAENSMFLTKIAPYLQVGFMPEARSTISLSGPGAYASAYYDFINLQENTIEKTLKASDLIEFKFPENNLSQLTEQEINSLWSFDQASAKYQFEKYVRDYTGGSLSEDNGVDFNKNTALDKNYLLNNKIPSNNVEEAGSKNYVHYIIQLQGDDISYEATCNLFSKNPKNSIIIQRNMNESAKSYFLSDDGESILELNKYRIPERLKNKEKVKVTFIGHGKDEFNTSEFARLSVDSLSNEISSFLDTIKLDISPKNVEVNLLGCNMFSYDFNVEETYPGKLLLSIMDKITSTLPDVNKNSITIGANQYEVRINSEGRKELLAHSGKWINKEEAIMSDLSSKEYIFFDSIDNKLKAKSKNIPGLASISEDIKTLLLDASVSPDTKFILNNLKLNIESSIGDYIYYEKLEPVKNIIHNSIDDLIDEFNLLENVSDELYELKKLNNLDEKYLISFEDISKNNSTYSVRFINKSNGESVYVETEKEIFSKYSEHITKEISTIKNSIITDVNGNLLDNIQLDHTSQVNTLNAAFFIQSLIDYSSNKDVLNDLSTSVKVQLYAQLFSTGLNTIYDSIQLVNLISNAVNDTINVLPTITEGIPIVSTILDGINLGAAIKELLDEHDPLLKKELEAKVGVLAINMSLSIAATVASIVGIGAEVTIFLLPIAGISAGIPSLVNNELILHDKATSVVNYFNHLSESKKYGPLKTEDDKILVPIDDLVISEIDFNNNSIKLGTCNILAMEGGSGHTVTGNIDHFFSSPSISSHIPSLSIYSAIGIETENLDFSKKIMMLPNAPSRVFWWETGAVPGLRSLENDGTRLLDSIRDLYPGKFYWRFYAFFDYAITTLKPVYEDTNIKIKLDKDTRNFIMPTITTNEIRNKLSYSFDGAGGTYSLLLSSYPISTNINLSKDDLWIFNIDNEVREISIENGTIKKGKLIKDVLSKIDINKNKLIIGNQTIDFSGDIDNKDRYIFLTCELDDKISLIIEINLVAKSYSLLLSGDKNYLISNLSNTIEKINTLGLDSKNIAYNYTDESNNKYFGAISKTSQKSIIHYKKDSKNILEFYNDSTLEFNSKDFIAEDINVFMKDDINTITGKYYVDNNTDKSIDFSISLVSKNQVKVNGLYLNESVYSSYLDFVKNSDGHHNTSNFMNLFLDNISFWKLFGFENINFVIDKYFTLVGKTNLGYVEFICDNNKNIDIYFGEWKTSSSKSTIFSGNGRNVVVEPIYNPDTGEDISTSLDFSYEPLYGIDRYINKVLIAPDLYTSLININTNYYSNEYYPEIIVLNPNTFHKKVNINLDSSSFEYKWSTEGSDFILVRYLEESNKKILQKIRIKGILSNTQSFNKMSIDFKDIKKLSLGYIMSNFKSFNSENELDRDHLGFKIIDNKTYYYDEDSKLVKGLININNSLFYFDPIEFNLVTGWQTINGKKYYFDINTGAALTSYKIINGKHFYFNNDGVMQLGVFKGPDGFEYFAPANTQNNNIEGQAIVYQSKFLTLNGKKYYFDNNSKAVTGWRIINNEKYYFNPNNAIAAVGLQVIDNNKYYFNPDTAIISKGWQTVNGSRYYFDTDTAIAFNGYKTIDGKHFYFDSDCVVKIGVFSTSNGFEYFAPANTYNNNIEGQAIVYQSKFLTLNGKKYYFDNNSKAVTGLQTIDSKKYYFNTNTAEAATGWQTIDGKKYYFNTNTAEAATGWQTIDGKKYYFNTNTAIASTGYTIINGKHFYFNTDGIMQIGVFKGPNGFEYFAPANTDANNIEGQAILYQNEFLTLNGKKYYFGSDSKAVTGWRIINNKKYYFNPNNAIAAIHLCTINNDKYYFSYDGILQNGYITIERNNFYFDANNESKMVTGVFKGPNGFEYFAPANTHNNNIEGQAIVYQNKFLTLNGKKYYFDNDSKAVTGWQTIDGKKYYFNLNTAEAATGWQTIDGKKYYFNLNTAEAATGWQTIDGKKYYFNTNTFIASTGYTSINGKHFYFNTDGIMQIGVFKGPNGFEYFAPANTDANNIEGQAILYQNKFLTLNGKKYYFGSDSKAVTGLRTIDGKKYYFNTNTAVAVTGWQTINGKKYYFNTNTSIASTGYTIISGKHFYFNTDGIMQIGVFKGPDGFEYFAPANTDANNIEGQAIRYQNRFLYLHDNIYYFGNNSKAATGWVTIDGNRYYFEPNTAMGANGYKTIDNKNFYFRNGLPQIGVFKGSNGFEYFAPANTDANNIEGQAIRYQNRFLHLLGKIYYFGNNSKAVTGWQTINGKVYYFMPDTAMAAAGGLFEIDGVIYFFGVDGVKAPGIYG
Conditions: not given
It is filed as cell-based.
With `Cc1ccc(NC(=O)c2ccc(CN3C(=O)c4ccc(Cl)cc4NC(=O)[C@H]3Cc3ccccn3)cc2)nc1`, the IC50 worked out at 3.2 µM.

Test system in the next data set: not listed separately
Put plainly: Stability in human liver microsomes assessed as parent compound remaining level incubated for 15 mins. Format: ADME, microsome. The settings on record: read-out: Stability. On the technique in general: Microsomes from liver hold many membrane-bound enzymes, among them those of drug oxidation.
Take `O=C(Nc1nccs1)c1ccc(CN2C(=O)c3ccc(Cl)cc3NC(=O)[C@H]2Cc2cccnc2)cc1`: the remaining at 0.25 h is 61%.

For `Cc1ccc(NC(=O)c2ccc(CN3C(=O)c4ccc(Cl)cc4NC(=O)[C@H]3Cc3ccccn3)cc2)nc1`, the remaining at 0.25 h was 63%.

Test system in a further data set: not listed separately
Kind of data set: Stability in mouse liver microsomes assessed as parent compound remaining level incubated for 15 mins. It is filed as ADME, microsome. The settings on record: read-out: Stability.
As to `O=C(Nc1nccs1)c1ccc(CN2C(=O)c3ccc(Cl)cc3NC(=O)[C@H]2Cc2cccnc2)cc1`, the remaining at 0.25 h was 67%.

As for `Cc1ccc(NC(=O)c2ccc(CN3C(=O)c4ccc(Cl)cc4NC(=O)[C@H]3Cc3ccccn3)cc2)nc1`, the remaining at 0.25 h was determined as 43%.

In another data set the test system is Clostridioides difficile. Kind of data set: Effect on growth of Clostridium difficile at 0.5 to 100 uM incubated for 24 hrs under anaerobic conditions by spectrophotometry.
Conditions: not given
It is filed as functional, organism-based.
Consider `O=C(O)c1ccc(CN2C(=O)c3ccc(Cl)cc3NC(=O)[C@H]2Cc2cccnc2)cc1`, for which the result was inactive.

As to `O=C(O)c1ccc(CN2C(=O)c3ccc(Cl)cc3NC(=O)[C@H]2Cc2ccccc2)cc1`, the outcome was inactive.

With `CN1C(=O)[C@@H](Cc2cccnc2)N(Cc2ccc(C(=O)O)cc2)C(=O)c2ccc(Cl)cc21`, the outcome was inactive.

As to `Cc1cccc(C[C@@H]2C(=O)Nc3cc(Cl)ccc3C(=O)N2Cc2ccc(C(=O)O)cc2)c1`, the outcome was inactive.

In the case of `O=C(Nc1nccs1)c1ccc(CN2C(=O)c3ccc(Cl)cc3NC(=O)[C@H]2Cc2cccnc2)cc1`, the result was inactive.

As for `Cc1ccc(NC(=O)c2ccc(CN3C(=O)c4ccc(Cl)cc4NC(=O)[C@H]3Cc3ccccn3)cc2)nc1`, the result was inactive.

Take `O=C(O)c1ccc(CN2C(=O)c3ccc(Cl)cc3NC(=O)[C@H]2Cc2ccc(Cl)cc2)cc1`: the outcome was inactive.

The test system of a further data set is Limosilactobacillus reuteri. Kind of data set: Effect on growth of Lactobacillus reuteri at 0.5 to 100 uM incubated for 24 hrs under anaerobic conditions by spectrophotometry. It is filed as organism-based.
Conditions: not given
Consider `O=C(O)c1ccc(CN2C(=O)c3ccc(Cl)cc3NC(=O)[C@H]2Cc2cccnc2)cc1`, for which the Activity result was “Non-Toxic”.

With `O=C(O)c1ccc(CN2C(=O)c3ccc(Cl)cc3NC(=O)[C@H]2Cc2ccccc2)cc1`, the Activity result was “Non-Toxic”.

As for `CN1C(=O)[C@@H](Cc2cccnc2)N(Cc2ccc(C(=O)O)cc2)C(=O)c2ccc(Cl)cc21`, the Activity result is “Non-Toxic”.

For the compound `Cc1cccc(C[C@@H]2C(=O)Nc3cc(Cl)ccc3C(=O)N2Cc2ccc(C(=O)O)cc2)c1`, the Activity result is on record as “Non-Toxic”.

As to `O=C(Nc1nccs1)c1ccc(CN2C(=O)c3ccc(Cl)cc3NC(=O)[C@H]2Cc2cccnc2)cc1`, the Activity entry is reported as “Non-Toxic”.

For `Cc1ccc(NC(=O)c2ccc(CN3C(=O)c4ccc(Cl)cc4NC(=O)[C@H]3Cc3ccccn3)cc2)nc1`, the Activity entry is “Non-Toxic”.

Turning to `O=C(O)c1ccc(CN2C(=O)c3ccc(Cl)cc3NC(=O)[C@H]2Cc2ccc(Cl)cc2)cc1`, the Activity result is given as “Non-Toxic”.

The next data set has as its system Bifidobacterium longum. Kind of data set: Effect on growth of Bifidobacterium longum at 0.5 to 100 uM incubated for 24 hrs under anaerobic conditions by spectrophotometry. It is filed as organism-based.
Conditions: not given
On to `O=C(O)c1ccc(CN2C(=O)c3ccc(Cl)cc3NC(=O)[C@H]2Cc2cccnc2)cc1`, for which the Activity entry is “Non-Toxic”.

Turning to `O=C(O)c1ccc(CN2C(=O)c3ccc(Cl)cc3NC(=O)[C@H]2Cc2ccccc2)cc1`, the Activity entry is recorded as “Non-Toxic”.

In the case of `CN1C(=O)[C@@H](Cc2cccnc2)N(Cc2ccc(C(=O)O)cc2)C(=O)c2ccc(Cl)cc21`, the Activity entry was “Non-Toxic”.

`Cc1cccc(C[C@@H]2C(=O)Nc3cc(Cl)ccc3C(=O)N2Cc2ccc(C(=O)O)cc2)c1`: the Activity entry is reported as “Non-Toxic”.

Take `O=C(Nc1nccs1)c1ccc(CN2C(=O)c3ccc(Cl)cc3NC(=O)[C@H]2Cc2cccnc2)cc1`: the Activity result was “Non-Toxic”.

In the case of `Cc1ccc(NC(=O)c2ccc(CN3C(=O)c4ccc(Cl)cc4NC(=O)[C@H]3Cc3ccccn3)cc2)nc1`, the Activity entry is given as “Non-Toxic”.

Take `O=C(O)c1ccc(CN2C(=O)c3ccc(Cl)cc3NC(=O)[C@H]2Cc2ccc(Cl)cc2)cc1`: the Activity result is on record as “Non-Toxic”.

For the next data set, the system named is Bacteroides fragilis. Kind of data set: Effect on growth of Bacteroides fragilis at 0.5 to 100 uM incubated for 48 hrs under anaerobic conditions by spectrophotometry. It is filed as organism-based.
Conditions: not given
Regarding `O=C(O)c1ccc(CN2C(=O)c3ccc(Cl)cc3NC(=O)[C@H]2Cc2cccnc2)cc1`, the Activity result was “Non-Toxic”.

With `O=C(O)c1ccc(CN2C(=O)c3ccc(Cl)cc3NC(=O)[C@H]2Cc2ccccc2)cc1`, the Activity entry is on record as “Non-Toxic”.

Turning to `CN1C(=O)[C@@H](Cc2cccnc2)N(Cc2ccc(C(=O)O)cc2)C(=O)c2ccc(Cl)cc21`, the Activity result is “Non-Toxic”.

As for `Cc1cccc(C[C@@H]2C(=O)Nc3cc(Cl)ccc3C(=O)N2Cc2ccc(C(=O)O)cc2)c1`, the Activity entry is given as “Non-Toxic”.

On to `O=C(Nc1nccs1)c1ccc(CN2C(=O)c3ccc(Cl)cc3NC(=O)[C@H]2Cc2cccnc2)cc1`, for which the Activity result is “Non-Toxic”.

Turning to `Cc1ccc(NC(=O)c2ccc(CN3C(=O)c4ccc(Cl)cc4NC(=O)[C@H]3Cc3ccccn3)cc2)nc1`, the Activity entry is recorded as “Non-Toxic”.

As to `O=C(O)c1ccc(CN2C(=O)c3ccc(Cl)cc3NC(=O)[C@H]2Cc2ccc(Cl)cc2)cc1`, the Activity entry is “Non-Toxic”.

Test system in a further data set: not listed separately
Kind of data set: Clearance in CD1 mouse at 1 mg/kg, iv. It is filed as ADME, organism-based. As to conditions: in vivo.
`Cc1ccc(NC(=O)c2ccc(CN3C(=O)c4ccc(Cl)cc4NC(=O)[C@H]3Cc3ccccn3)cc2)nc1` gave a clearance of 76 mL/min/kg.

Test system in the next data set: not listed separately
Put plainly: Elimination half life in CD1 mouse at 1 mg/kg, iv. It is filed as ADME, organism-based. As to conditions: in vivo, read-out: beta t1/2 (converted).
As to `Cc1ccc(NC(=O)c2ccc(CN3C(=O)c4ccc(Cl)cc4NC(=O)[C@H]3Cc3ccccn3)cc2)nc1`, the half-life was 60 min.

Test system in the next data set: not listed separately
Put plainly: Apparent volume of distribution in CD1 mouse at 1 mg/kg, iv. It is filed as ADME, organism-based. As to conditions: in vivo, read-out: Vz.
Take `Cc1ccc(NC(=O)c2ccc(CN3C(=O)c4ccc(Cl)cc4NC(=O)[C@H]3Cc3ccccn3)cc2)nc1`: the Vd turned out to be 6.9 L/kg.

Test system in the next data set: not listed separately
Kind of data set: AUC (0 to 24 hrs) in CD1 mouse at 1 mg/kg, iv. More on the design: dose 1 mg/kg, time < 24 hr, route intravenous. As to conditions: in vivo. It is filed as ADME, organism-based.
On to `Cc1ccc(NC(=O)c2ccc(CN3C(=O)c4ccc(Cl)cc4NC(=O)[C@H]3Cc3ccccn3)cc2)nc1`, for which the AUC(0-t) at 24 h is 200 ng·h/mL.

Test system in a further data set: not listed separately
Kind of data set: AUC (0 to 24 hrs) in CD1 mouse at 10 mg/kg, po. Format: ADME, organism-based. Further details: dose 10 mg/kg, time < 24 hr, route oral. As to conditions: in vivo.
`Cc1ccc(NC(=O)c2ccc(CN3C(=O)c4ccc(Cl)cc4NC(=O)[C@H]3Cc3ccccn3)cc2)nc1` showed an AUC(0-t) at 24 h of 1070 ng·h/mL.

Test system in the next data set: not listed separately
Put plainly: Cmax in CD1 mouse at 1 mg/kg, iv. It is filed as ADME, organism-based. More on the design: dose 1 mg/kg, route intravenous. As to conditions: in vivo.
Compound `Cc1ccc(NC(=O)c2ccc(CN3C(=O)c4ccc(Cl)cc4NC(=O)[C@H]3Cc3ccccn3)cc2)nc1` displayed a peak concentration (Cmax) of 1030 ng/mL.

Test system in another data set: not listed separately
Put plainly: Cmax in CD1 mouse at 10 mg/kg, po. It is filed as ADME, organism-based. Further details: dose 10 mg/kg, route oral. The settings on record: in vivo.
Consider `Cc1ccc(NC(=O)c2ccc(CN3C(=O)c4ccc(Cl)cc4NC(=O)[C@H]3Cc3ccccn3)cc2)nc1`, for which the highest concentration (Cmax) is 2690 ng/mL.

Test system in another data set: not listed separately
Put plainly: Tmax in CD1 mouse at 10 mg/kg, po. It is filed as ADME, organism-based. The settings on record: in vivo.
As for `Cc1ccc(NC(=O)c2ccc(CN3C(=O)c4ccc(Cl)cc4NC(=O)[C@H]3Cc3ccccn3)cc2)nc1`, the Tmax turned out to be 15 min.

Test system in a further data set: not listed separately
Put plainly: Stability in mouse plasma assessed as parent compound remaining measured during 0 to 120 mins post dose. It is filed as ADME, cell-free.
Conditions: not given
With `Cc1ccc(NC(=O)c2ccc(CN3C(=O)c4ccc(Cl)cc4NC(=O)[C@H]3Cc3ccccn3)cc2)nc1`, the Stability entry was “Unstable”.
